Series [1] relates to Human immunodeficiency virus 1. Briefly: Antiviral activity against HIV-1 KP-5mvcR infected in human TZM-bl cells assessed as inhibition of viral entry by measuring reduction in RLU by single round assay. Type of series: functional, organism-based. To be noted: Human immunodeficiency virus 1, KP-5mvcR.
Series [2] has as its system TZM. Description: Cytotoxicity against human TZM-bl cells. Type of series: toxicity, cell-based.
Series [3] has as its system Human immunodeficiency virus 1. Briefly: Antiviral activity against HIV-1 KP-5mvcR infected in human TZM-bl cells assessed as inhibition of viral entry by measuring reduction in RLU at 10 nM by single round assay relative to control. Type of series: functional. The arrangement: scale not given: the % may be the effect or the level left.

Where a SMILES comes first, the peptide text is derived from it. [ ]: non-standard residue; d: D form. Nle = CCCC[C@H](N)C(=O)O Where only a bound is given, the exact number is not on record here.

As a reminder, the IC50 is the concentration needed to halve the response being measured. Consider `CCCC[C@H](NC(=O)[C@H](Cc1c[nH]c2ccccc12)NC(C)=O)C(=O)N[C@@H](CCC(=O)O)C(=O)N[C@@H](Cc1c[nH]c2ccccc12)C(=O)N[C@@H](CC(=O)O)C(=O)N[C@@H](CCCNC(=N)N)C(=O)N[C@@H](CCCCN)C(=O)N[C@H](C(=O)N[C@@H](CCC(=O)O)C(=O)N[C@@H](CCC(=O)O)C(=O)N[C@@H](Cc1ccc(O)cc1)C(=O)N[C@H](C(=O)N[C@@H](CCCCN)C(=O)N[C@@H](CCCCN)C(=O)N[C@H](C(=O)N[C@@H](CCCCN)C(=O)N[C@@H](CCCCN)C(=O)N[C@@H](CC(C)C)C(=O)N[C@H](C(=O)N[C@@H](CCC(=O)O)C(=O)N[C@@H](CCC(=O)O)C(=O)N[C@@H](CO)C(=O)N[C@@H](CCC(N)=O)C(=O)N[C@@H](CCC(=O)O)C(=O)N[C@@H](CCC(N)=O)C(=O)N[C@@H](CCC(N)=O)C(=O)N[C@@H](CCC(=O)O)C(=O)N[C@@H](CCCCN)C(=O)N[C@@H](CC(N)=O)C(=O)N[C@@H](CCC(=O)O)C(=O)N[C@@H](CCCCN)C(=O)N[C@@H](CCC(=O)O)C(=O)N[C@@H](CC(C)C)C(=O)N[C@@H](CCCCN)C(=O)N[C@H](CSCC(=O)NCc1cn(CCCC[C@H](NC(=O)[C@H](CO)NC(=O)CNC(=O)CNC(=O)CNC(=O)CNC(=O)CCC(=O)N[C@@H](CCCNC(=N)N)C(=O)NCCN2CCC(NC(=O)C(=O)Nc3ccc(Cl)cc3)CC2)C(N)=O)nn1)C(N)=O)[C@@H](C)CC)[C@@H](C)CC)[C@@H](C)O)[C@@H](C)CC`, for which the IC50 in series [1] stood at 5.5 nM.

For enfuvirtide, the IC50 in series [1] was determined as 32 nM.

For the compound Ac-WEEWDKKIEEYTKKIEELIKKS-NH2, in series [2], the Activity result is reported as “Non-Toxic”. Moreover, the IC50 in series [1] is 60 nM.

`CCCC[C@H](NC(=O)[C@H](Cc1c[nH]c2ccccc12)NC(C)=O)C(=O)N[C@@H](CCC(=O)O)C(=O)N[C@@H](Cc1c[nH]c2ccccc12)C(=O)N[C@@H](CC(=O)O)C(=O)N[C@@H](CCCNC(=N)N)C(=O)N[C@@H](CCCCN)C(=O)N[C@H](C(=O)N[C@@H](CCC(=O)O)C(=O)N[C@@H](CCC(=O)O)C(=O)N[C@@H](Cc1ccc(O)cc1)C(=O)N[C@H](C(=O)N[C@@H](CCCCN)C(=O)N[C@@H](CCCCN)C(=O)N[C@H](C(=O)N[C@@H](CCCCN)C(=O)N[C@@H](CCCCN)C(=O)N[C@@H](CC(C)C)C(=O)N[C@H](C(=O)N[C@@H](CCC(=O)O)C(=O)N[C@@H](CCC(=O)O)C(=O)N[C@@H](CO)C(=O)N[C@@H](CCC(N)=O)C(=O)N[C@@H](CCC(=O)O)C(=O)N[C@@H](CCC(N)=O)C(=O)N[C@@H](CCC(N)=O)C(=O)N[C@@H](CCC(=O)O)C(=O)N[C@@H](CCCCN)C(=O)N[C@@H](CC(N)=O)C(=O)N[C@@H](CCC(=O)O)C(=O)N[C@@H](CCCCN)C(=O)N[C@@H](CCC(=O)O)C(=O)N[C@@H](CC(C)C)C(=O)N[C@@H](CCCCN)C(=O)N[C@H](CSCC(=O)NCCCC[C@H](NC(=O)[C@H](CO)NC(=O)CNC(=O)CNC(=O)CNC(=O)CNC(=O)CCC(=O)N[C@@H](CCCNC(=N)N)C(=O)NCCN1CCC(NC(=O)C(=O)Nc2ccc(Cl)cc2)CC1)C(N)=O)C(N)=O)[C@@H](C)CC)[C@@H](C)CC)[C@@H](C)O)[C@@H](C)CC`: in series [3], the Activity is 95.6%. Further, the IC50 in series [1] is below 10 nM.

For the compound `N=C(N)NCCCCC(=O)NCCN1CCC(NC(=O)C(=O)Nc2ccc(Cl)cc2)CC1`, in series [2], the Activity result is on record as “Non-Toxic”. Also, the IC50 in series [1] is 145 nM.

With `CC[C@H](C)[C@H](NC(=O)[C@H](CCCCN)NC(=O)[C@H](CCCCN)NC(=O)[C@H](CC(=O)O)NC(=O)[C@H](Cc1c[nH]c2ccccc12)NC(=O)[C@H](CCC(=O)O)NC(=O)[C@H](CCC(=O)O)NC(=O)[C@H](Cc1c[nH]c2ccccc12)NC(C)=O)C(=O)N[C@@H](CCC(=O)O)C(=O)N[C@@H](CCC(=O)O)C(=O)N[C@@H](Cc1ccc(O)cc1)C(=O)N[C@H](C(=O)N[C@@H](CCCCN)C(=O)N[C@@H](CCCCN)C(=O)N[C@H](C(=O)N[C@@H](CCC(=O)O)C(=O)N[C@@H](CCC(=O)O)C(=O)N[C@@H](CC(C)C)C(=O)N[C@H](C(=O)N[C@@H](CCCCN)C(=O)N[C@@H](CCCCN)C(=O)N[C@@H](CO)C(=O)N[C@H](CSCC(=O)NCCCC[C@H](NC(=O)[C@H](CO)NC(=O)CNC(=O)CNC(=O)CNC(=O)CNC(=O)CCC(=O)N[C@@H](CCCNC(=N)N)C(=O)NCCN1CCC(NC(=O)C(=O)Nc2ccc(Cl)cc2)CC1)C(N)=O)C(N)=O)[C@@H](C)CC)[C@@H](C)CC)[C@@H](C)O`, the IC50 in series [1] came to 150 nM.

On to `O=C1Nc2ccc(Cl)cc2[C@@](C#CC2CC2)(C(F)(F)F)O1` [EFAVIRENZ], for which, in series [1], the 50% inhibitory concentration (IC50) amounted to 11 nM.

As to `CCCC[C@H](NC(=O)[C@H](Cc1c[nH]c2ccccc12)NC(C)=O)C(=O)N[C@@H](CCC(=O)O)C(=O)N[C@@H](Cc1c[nH]c2ccccc12)C(=O)N[C@@H](CC(=O)O)C(=O)N[C@@H](CCCNC(=N)N)C(=O)N[C@@H](CCCCN)C(=O)N[C@H](C(=O)N[C@@H](CCC(=O)O)C(=O)N[C@@H](CCC(=O)O)C(=O)N[C@@H](Cc1ccc(O)cc1)C(=O)N[C@H](C(=O)N[C@@H](CCCCN)C(=O)N[C@@H](CCCCN)C(=O)N[C@H](C(=O)N[C@@H](CCCCN)C(=O)N[C@@H](CCCCN)C(=O)N[C@@H](CC(C)C)C(=O)N[C@H](C(=O)N[C@@H](CCC(=O)O)C(=O)N[C@@H](CCC(=O)O)C(=O)N[C@@H](CO)C(=O)N[C@@H](CCC(N)=O)C(=O)N[C@@H](CCC(=O)O)C(=O)N[C@@H](CCC(N)=O)C(=O)N[C@@H](CCC(N)=O)C(=O)N[C@@H](CCC(=O)O)C(=O)N[C@@H](CCCCN)C(=O)N[C@@H](CC(N)=O)C(=O)N[C@@H](CCC(=O)O)C(=O)N[C@@H](CCCCN)C(=O)N[C@@H](CCC(=O)O)C(=O)N[C@@H](CC(C)C)C(=O)N[C@@H](CCCCN)C(N)=O)[C@@H](C)CC)[C@@H](C)CC)[C@@H](C)O)[C@@H](C)CC` (Ac-W[Nle]EWDRKIEEYTKKIKKLIEESQEQQEKNEKELK-NH2), the Activity result in series [2] is reported as “Non-Toxic”. Besides, in series [1], the IC50 amounted to 0.64 nM.

(Values after ChEMBL document CHEMBL5150050, “Hybrids of small CD4 mimics and gp41-related peptides as dual-target HIV entry inhibitors” (Bioorg Med Chem, 2022).)
